From publication PMC5469208 (Molecular microbiology, 2016)
Converted amounts (≈) assume the structure as drawn. “Also recorded” adds a separate entry of the source. Like-named read-outs stand apart in the source and are kept apart here.

Assays:
B. subtilis 168 = assay: MIC determination by broth microdilution, B. subtilis 168 wt; type: cell-based; details: Bacillus subtilis, 168, B. subtilis 168 wt, LB medium
B. subtilis 168-pX2-clpP = assay: MIC determination, conditional strain B. subtilis 168-pX2-clpP; type: cell-based; details: Bacillus subtilis, 168PX2CLPP, LB medium
[1] = test system: M. bovis BCG clpP1-tetoff; assay: microbe, parasite or virus in culture; type: cell-based, Mycobacterium bovis BCG
B. subtilis 168ΔclpP = assay: microbe, parasite or virus in culture; type: cell-based; details: Bacillus subtilis, LB medium
M. tuberculosis H37Rv = assay: MIC determination by broth microdilution, M. tuberculosis; type: cell-based; details: Mycobacterium tuberculosis
M. bovis BCG Pasteur = assay: microbe, parasite or virus in culture; type: cell-based, Mycobacterium bovis BCG
ClpC1 [2] = details: ref Gavrish et al., 2014 (lassomycin); Gao et al., 2014 (ecumicin); cited from earlier work
ClpC1 [3] = details: binding to the ATPase ClpC1; ref Schmitt et al., 2011; cited from earlier work
ClpP2 = type: cell-based, M. bovis BCG
[4] = test system: M. bovis BCG clpP1-tetoff; type: cell-based, Mycobacterium bovis BCG
M. bovis wildtype (wt) = type: cell-based, Mycobacterium bovis BCG
S. aureus = details: ref Conlon et al., 2013; cited from earlier work
BS ClpP [5] = biological target: T1, BS ClpP (Bacillus subtilis, UniProt P80244); assay: Z-LL stability in the presence of BS ClpP, HPLC; design: species or system B. subtilis; details: 1 mM Z-LL, 3 μM BS ClpP, 3 h, 37 °C, activity buffer, Fig. S3
T1 sequence (P80244 whole entry): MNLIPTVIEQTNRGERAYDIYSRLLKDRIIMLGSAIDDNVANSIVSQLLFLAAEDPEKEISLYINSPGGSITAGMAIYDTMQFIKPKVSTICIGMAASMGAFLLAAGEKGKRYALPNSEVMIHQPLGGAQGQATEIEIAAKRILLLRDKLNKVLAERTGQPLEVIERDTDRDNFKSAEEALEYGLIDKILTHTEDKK

BS ClpP [6] = biological target: T1, BS ClpP; assay: suc-LY-amc hydrolysis competition assay with BS ClpP; type: biochemical, B. subtilis; details: 3 μM BS ClpP, 30 μM suc-LY-amc, 0–60 μM ADEP2, 0, 500 or 2500 μM Z-LL, pH 8
MTB ClpP1P2 = MTB ClpP1P2 (Mycobacterium tuberculosis, UniProt P9WPC3+P9WPC5); assay: Z-GGL-amc peptidase activity of Z-LL pre-activated ClpP1P2; type: biochemical, M. tuberculosis; details: 5 mM Z-LL, without ADEP
M. smegmatis mc^2155 = assay: MIC determination by broth microdilution, M. smegmatis; type: cell-based, Mycobacterium smegmatis; details: Mycolicibacterium smegmatis, MC^2155, 48 h
[7] = M. bovis BCG wt, 25 ng ml^−1 ATc
[8] = M. bovis BCG wt, no ATc (Table 2)
[9] = Mycobacterium tuberculosis variant bovis BCG, BCG

CN[C@@H]1[C@@H](O[C@H]2O[C@H](CO)[C@@H](N)[C@H](O)[C@H]2O)OC2C[C@@H](N)[C@@H](O[C@H]3[C@H](O)[C@@H](O)[C@H](N)C[C@@H]3N)OC2[C@@H]1O (some centres unmarked) [apramycin]
MIC (B. subtilis 168; 10% xylose): 2 µg/mL (≈ 3.71 µM)
MIC (B. subtilis 168; no xylose): 4 µg/mL (≈ 7.41 µM)
MIC (B. subtilis 168-pX2-clpP; 1% xylose): 1 µg/mL (≈ 1.85 µM)
MIC (B. subtilis 168-pX2-clpP; 2% xylose): 2 µg/mL (≈ 3.71 µM)
MIC (B. subtilis 168-pX2-clpP; 3% xylose): 2 µg/mL (≈ 3.71 µM)
MIC (B. subtilis 168-pX2-clpP; 4% xylose): 4 µg/mL (≈ 7.41 µM)
MIC (B. subtilis 168-pX2-clpP; 5% xylose): 2 µg/mL (≈ 3.71 µM)
MIC (B. subtilis 168-pX2-clpP; 8% xylose): 4 µg/mL (≈ 7.41 µM)
MIC (B. subtilis 168-pX2-clpP; 10% xylose): 4 µg/mL (≈ 7.41 µM)
MIC (B. subtilis 168-pX2-clpP; no xylose): 2 µg/mL (≈ 3.71 µM)
effect of ATc (clpP1P2 down-regulation) on sensitivity to the antibiotic [1]: did not occur
MIC (B. subtilis 168ΔclpP; 10% xylose): 1 µg/mL (≈ 1.85 µM)
MIC (B. subtilis 168ΔclpP; no xylose): 2 µg/mL (≈ 3.71 µM)
MIC (M. tuberculosis H37Rv): 1 µg/mL (≈ 1.85 µM)
MIC (M. bovis BCG Pasteur; [7]): 1 µg/mL (≈ 1.85 µM)
MIC (M. bovis BCG Pasteur; [8]): 1 µg/mL (≈ 1.85 µM)
MIC (M. bovis BCG Pasteur; [9]): 1 µg/mL (≈ 1.85 µM)

lassomycin
ATP-hydrolysis by ClpC1, uncoupling from protein degradation by ClpP1P2 (ClpC1 [2]): stimulate ATP-hydrolysis by ClpC1, while uncoupling it from protein degradation by ClpP1P2

ecumicin
ATP-hydrolysis by ClpC1, uncoupling from protein degradation by ClpP1P2 (ClpC1 [2]): stimulate ATP-hydrolysis by ClpC1, while uncoupling it from protein degradation by ClpP1P2

Cyclomarin
hydrolysis of a model protein in M. smegmatis (ClpC1 [3]): increased hydrolysis of a model protein

Cc1c2c(c(O)c3c(O)cccc13)C(=O)[C@]1(O)C(=O)C(C(N)=O)=C(O)[C@@H](N(C)C)[C@@H]1C2 [ATc, anhydrotetracycline]
ClpP2 / ClpP1P2 protein level (ClpP2): considerably reduced level
growth of clpP1-tetoff strain [4]: slowed down the growth rate; also recorded: the cells were dying
growth of M. bovis wildtype (M. bovis wildtype (wt); 2 ng ml^−1 ATc): not affected
growth of M. bovis wildtype (M. bovis wildtype (wt); 25 ng ml^−1 ATc, MIC growth controls): did not impede growth of the wildtype strain

CO[C@H]1/C=C/O[C@@]2(C)Oc3c(C)c(O)c4c(O)c(c(/C=N/N5CCN(C)CC5)c(O)c4c3C2=O)NC(=O)/C(C)=C\C=C\[C@H](C)[C@H](O)[C@@H](C)[C@@H](O)[C@@H](C)[C@H](OC(C)=O)[C@@H]1C [Rifampicin]
synergy with ADEP against S. aureus (S. aureus): act synergistically with ADEP against S. aureus

benzyloxycarbonyl-leucyl-leucine [Z-LL]
amount of Z-LL after incubation with BS ClpP (BS ClpP [5]): not reduced after 3 hours incubation
mode of inhibition of Z-LL versus ADEP2 (BS ClpP [6]): non-competitive with ADEP
peptidase activity of ClpP1P2 activated by Z-LL alone (MTB ClpP1P2): able to degrade the fluorogenic peptide substrate Z-GGL-amc

NNC(=O)c1ccncc1 [isoniazid]
effect of ATc (clpP1P2 down-regulation) on sensitivity to the antibiotic [1]: did not occur
MIC [1, 9]: 0.03 µg/mL (≈ 0.219 µM)
MIC (M. bovis BCG Pasteur; M. bovis BCG Pasteur, 7H9 medium): 0.06 µg/mL (≈ 0.438 µM)
MIC (M. bovis BCG Pasteur; [7]): 0.06 µg/mL (≈ 0.438 µM)
MIC (M. bovis BCG Pasteur; [8]): 0.06 µg/mL (≈ 0.438 µM)
MIC (M. bovis BCG Pasteur; [9]): 0.06 µg/mL (≈ 0.438 µM)
MIC (M. smegmatis mc^2155): 4 µg/mL (≈ 29.2 µM)
